Source: patent US7563799B2, “Substituted pyrazolo[3,4-D]pyrimidines as p38 map kinase inhibitors” (Roche Palo Alto LLC, priority 2005, dated 2009)
pIC50: −log10 of the molar value.

Tests used:
p38 MAP kinase = target: T1, p38 MAP kinase (Homo sapiens, UniProt Q16539); experiment: p38 (MAP) kinase in vitro assay (transfer of γ-33P from ATP to Myelin Basic Protein); format: biochemical; settings: phosphorylated recombinant p38 MAP kinase, MBP substrate, γ-33P-ATP, 30° C.
T1 construct: made in house; host or cells: E. coli (co-expressed with SEK-1 and MEKK)
Procedure: This example illustrates a p38 (MAP) kinase in vitro assay useful for evaluating the compounds of the invention.
The p38 MAP kinase inhibitory activity of compounds of this invention in vitro was determined by measuring the transfer of the γ-phosphate from γ-^33P-ATP by p-38 kinase to Myelin Basic Protein (MBP), using a minor modification of the method described in Ahn, et al., J. Biol. Chem. 266:4220-4227 (1991).
The phosphorylated form of the recombinant p38 MAP kinase was co-expressed with SEK-1 and MEKK in E. Coli (see, Khokhlatchev, et al., J. Biol. Chem. 272:11057-11062 (1997)) and then purified by affinity chromatography using a Nickel column.
The phosphorylated p38 MAP kinase was diluted in kinase buffer (20 mM 3-(N-morpholino)propanesulfonic acid, pH 7.2, 25 mM β-glycerol phosphate, 5 mM ethylene glycol-bis(beta-aminoethyl ether)-N,N,N′,N′-tetraacetic acid, 1 mM sodium ortho-vanadate, 1 mM dithiothreitol, 40 mM magnesium chloride). Test compound dissolved in DMSO or only DMSO (control) was added and the samples were incubated for 10 min at 30° C. The kinase reaction was initiated by the addition of a substrate cocktail containing MBP and γ-^33P-ATP. […] The phosphorylated MBP was then separated from the residual γ-^33P-ATP using a phosphocellulose membrane (Millipore, Bedfrod, Mass.) and quantitated using a scintillation counter (Packard, Meriden, Conn.).

T1 sequence (Q16539 whole entry): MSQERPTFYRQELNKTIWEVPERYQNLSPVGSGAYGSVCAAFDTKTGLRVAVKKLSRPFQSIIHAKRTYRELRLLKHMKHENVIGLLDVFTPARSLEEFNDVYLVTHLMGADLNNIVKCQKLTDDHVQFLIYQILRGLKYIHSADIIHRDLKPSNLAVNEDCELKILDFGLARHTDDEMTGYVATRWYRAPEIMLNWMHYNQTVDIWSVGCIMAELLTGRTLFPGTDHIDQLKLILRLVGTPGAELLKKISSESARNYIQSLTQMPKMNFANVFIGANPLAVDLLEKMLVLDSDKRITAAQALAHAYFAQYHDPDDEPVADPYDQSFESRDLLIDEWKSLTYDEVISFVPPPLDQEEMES

| pIC50 (p38 MAP kinase) | melting point | SMILES |
| --- | --- | --- |
| ~8.70 |  | CS(=O)(=O)c1ccc(Cl)c(-c2n[nH]c3nc(Oc4ccc(F)cc4F)nc(NC(CO)CO)c23)c1 [Compound 4, 2-[3-(2-Chloro-5-methanesulfonyl-phenyl)-6-(2,4-difluoro-phenoxy)-1H-pyrazolo[3,4-d]pyrimidin-4-ylamino]-propane-1,3-diol] |
|  | 133 to 135 °C | Cc1ccc(S(C)(=O)=O)cc1-c1n[nH]c2nc(Oc3ccc(F)cc3F)ncc12 [Compound 5, 6-(2,4-Difluoro-phenoxy)-3-(5-methanesulfonyl-2-methyl-phenyl)-1H-pyrazolo[3,4-d]pyrimidine] |
|  | 251.6 to 252.2 °C | CS(=O)(=O)c1ccc(Cl)c(-c2n[nH]c3nc(Oc4ccc(F)cc4F)ncc23)c1 [Compound 2, 3-(2-Chloro-5-methanesulfonyl-phenyl)-6-(2,4-difluoro-phenoxy)-1H-pyrazolo[3,4-d]pyrimidine] |
